Read-outs that look alike come from different tables or passages of the source. Where a SMILES comes first, the peptide text is derived from it. The star is where a group is joined. Cbz = O=C(OCc1ccccc1)*; CH2F = FC*
Tests used:
Human Jurkat cells = test: Velcade-induced apoptosis of Jurkat cells, CellTiter-Glo viability; assay type: cell-based; conditions: 24 hours
Procedure: (§1) Human Jurkat cells were seeded in 96-well plates (20000 cells per well). Different concentrations of the compounds were added one hour prior to Velcade treatment, followed by the addition of 50 nM Velcade. After incubation for 24 hours, cell viability was measured by CellTiter-Glo Luminescent Cell Viability Assay.
(§2) The rates of cell death were measured in triplicate or quadruplicate in a 96-well or 384-well plate by using SYTOX Green Nucleic Acid Stain (Invitrogen) or ToxiLight Non-destructive Cytotoxicity BioAssay Kit (Lonza). The intensity of luminescence was determined in an EnSpire Multimode Plate Reader (PerkinElmer). Cytotoxicity is expressed as percentages of cell death per well after deducting the background signal in non-induced cells and compared to that of the maximal cell death with 100% Lysis Reagent. The rates of cell viability were determined by using CellTiter-Glo Luminescent Cell Viability Assay (Promega) following the manufacturer's protocol and the results are expressed as percentages of luminescence intensity per well after deducting the background signal in blank well and compared to that of the viability in the non-treated wells. Concentration of drugs used for inducing or inhibiting cell death, mTNFα: 1 ng/ml; 5Z-7-Oxozeaenol: 0.5 μM; Velcade: 50 nM; Apt-1/ICCB-19/ICCB-19i/Nec-1s: 10 μM.

Murine RGC5(661W) cells = test: RIPK1-dependent apoptosis (RDA) of RGC5 cells induced by TNFα plus 5Z-7-Oxozeaenol; assay type: cell-based; conditions: Mus musculus, 21 hours
Procedure: as §1, with “Murine RGC5(661W)” for “Human Jurkat”, “(4000” for “(20000”, “TNFα” for “Velcade”, “0.5 ng/ml TNFα plus 0.5 μM 5Z-7-Oxozeaenol to induce RIPK1-dependent apoptosis (RDA).” for “50 nM Velcade.”, “21” for “24”

H4 cells = test: Autophagy by LC3II western blotting in H4 cells (FIG. 21); assay type: cell-based; conditions: 10 uM, 1 h pretreatment, 6 h vehicle or 40 mM NH4Cl
Procedure: (§3) Wild-type H4 and MEF cells that were pretreated for 1 h with 10 uM of the specified compounds, followed by 6 h treatment with either vehicle or 40 mM NH4Cl. Cell lysates were prepared and immunoblotted for LC3-I and LC3-II. Autophagy was determined by LC3II levels using western blotting.

MEF cells = test: Autophagy by LC3II western blotting in MEF cells (FIG. 21); assay type: cell-based, mouse; conditions: 10 uM, 1 h pretreatment, 6 h vehicle or 40 mM NH4Cl
Procedure: as §3

[1] = test system: cleaved caspase-3 in Jurkat cells; test: Cleaved caspase-3 immunoblot in Velcade-treated cells; assay type: cell-based, human; conditions: 10 uM; 12 h 50 nM Velcade
Procedure: The levels of cleaved caspase-3 were determined by immunoblotting.
(§4) Specifically, wild-type MEF cells were pretreated for 1 h with 10 uM of the specified compounds, followed by 2 h treatment with 0.5 uM 5z-7-oxozeaenol and 1 ng/mL TNFα. Cell lysates were prepared and immunoblotted for cleaved-caspase 3 (CC3). Wild-type Jurkat cells were also pretreated for 1 h with 10 uM of the specified compounds, followed by 12 h treatment with 50 nM Velcade. Cell lysates were prepared and immunoblotted for cleaved-caspase 3 (CC3).

[2] = test system: cleaved-caspase 3 (CC3) in MEF cells; test: Cleaved caspase 3 immunoblot in MEF cells treated with 5z-7-oxozeaenol and TNFα (FIG. 22); assay type: cell-based, mouse; conditions: 10 uM; 2 h 0.5 uM 5z-7-oxozeaenol and 1 ng/mL TNFα
Procedure: as §4

H4-GFP-LC3 cells = test: Autophagy induction, GFP-LC3 puncta and LC3II immunoblotting; assay type: cell-based; conditions: 10 μM, 6 h (zVAD.fmk 20 μM)
Procedure: Mean ±s.e.m. (n=5). One-way ANOVA, post hoc Dunnett's test.
Autophagy was determined by LC3II levels using immunoblotting. SE=shorter exposure, LE=longer exposure.
Autophagy was measured by LC3II induction and p62 reduction by immunoblotting. The levels of LC3II in cells treated with both Apt-1 and NH4Cl, the latter of which inhibits lysosome, were higher than that treated with either Apt-1 or NH4Cl alone. Thus, ICCB-19/Apt-1, but not ICCB-19i, induce autophagic flux. Mean ±s.e.m. from technical triplicates (n=3), representative of 3 independent experiments. Two-tailed t-test. **P=0.0037.
Levels of LC3II determined by immunoblotting.
Cells were seeded at 2.5×10^4 cells per well on poly-L-lysine coated glass cover slips and transfected as described. Cells were fixed in 4% paraformaldehyde, followed by permeabilization with 0.1% Triton X-100. Nuclei were stained using DAPI (Sigma). Cells expressing GFP or RFP-fusion proteins were imaged with an Olympus Fluoview FV1000 confocal microscope (Olympus) using a 40×objective. For GFP-LC3 and DsRed-FYVE puncta quantification, the average spot intensity in 1000 cells from each indicated sample was determined. Images were processed using ImageJ and Photoshop CC. Concentration of compounds used to induce or block autophagy: 10 μM (Apt-1, ICCB-19, ICCB-19i or Spautin-1), for 6 h or as indicated.

MEFs = test: RDA in MEFs induced by mTNFα and 5Z-7-Oxozeaenol, cell survival; assay type: cell-based, mouse; conditions: 10 μM
Procedure: as §2

[3] = Table 3, 50 nM Velcade, read-out: Jurkat Velcade IC50/μM
[4] = Table 3, 0.5 ng/ml TNFα plus 0.5 μM 5Z-7-Oxozeaenol, read-out: RGC5 T/5z7 IC50/μM
[5] = Table 1, 50 nM Velcade, read-out: Apoptosis of Jurkat cells induced by Velcade (IC50 μM)
[6] = Table 2, 0.5 ng/ml TNFα plus 0.5 μM 5Z-7-Oxozeaenol, read-out: RGC5 T/5z7 IC50

Structure (SMILES)	IC50 (Human Jurkat cells; [3])	IC50 (Murine RGC5(661W) cells; [4])	other results
CN(C(=O)CSC1=NCCN1)C1CCCCCC1 [Compound 16]	1.46 µM	8.84 µM	–
Fc1ccccc1CSC1=NCCN1 [Compound 40]	3.23 µM	5.87 µM	autophagy (LC3II levels) in H4 cells (H4 cells): induce autophagy; autophagy (LC3II levels) in MEF cells (MEF cells): induce autophagy; cleaved caspase 3 in Jurkat cells [1]: block cleaved caspase 3; cleaved caspase 3 in MEF cells [2]: block cleaved caspase 3
N#Cc1ccc(CSC(=N)N)cc1 [Compound 7]	–	–	IC50 (Human Jurkat cells; [5]): 6.84 µM
N=C(N)SCc1ccccc1F [Compound 1]	–	–	IC50 (Human Jurkat cells; [5]): 6.2 µM
FC(F)=C(F)CCSC1=NCCN1 [Compound 8]	–	–	IC50 (Human Jurkat cells; [5]): 17.3 µM
O=C(CSC1=NCCN1)N1CCc2ccccc21 [ICCB-17]	–	–	IC50 (Human Jurkat cells; [5]): 13.4 µM
CC(SC1=NCCN1)C(=O)N(C)C1CCCCCC1 (stereo not drawn) [Compound 25]	1.22 µM	2.87 µM	–
Cc1ccc(NC(=O)CSC2=NCCN2)cc1 [Compound 4]	–	–	IC50 (Human Jurkat cells; [5]): 10.5 µM
COC(=O)C[C@H](NC(=O)[C@H](C)NC(=O)[C@@H](NC(=O)OCc1ccccc1)C(C)C)C(=O)CF [zVAD.fmk, reference compound] (Cbz-Val-Ala-Asp(OMe)-CH2F)	–	–	induction of autophagy (H4-GFP-LC3 cells): no effect on autophagy
COc1ccc(CSC(=N)N)cc1[N+](=O)[O-] [Compound 2]	–	–	IC50 (Human Jurkat cells; [5]): 4.4 µM
COc1ccc(NC(=O)CSC2=NCCN2)cc1 [Compound 5]	–	–	IC50 (Human Jurkat cells; [5]): 46.4 µM
O=C(CSC1=NCCN1)NC1CCC1 [Compound 14]	–	–	IC50 (Murine RGC5(661W) cells; [6]): 4.51 µM
O=C(CSC1=NCCN1)NC1CCCC1 [Compound 13]	–	–	IC50 (Murine RGC5(661W) cells; [6]): 3.42 µM
O=C(CSC1=NCCN1)NC1CCCCC1 [Compound 12]	–	–	IC50 (Murine RGC5(661W) cells; [6]): 2.36 µM
CN1C(=O)NC(Cc2c[nH]c3c(Cl)cccc23)C1=O (stereo not drawn) [Nec-1s, reference compound]	–	–	protection against RDA models (MEFs): protected against multiple RDA models
CN1CCN=C1SC(C(=O)NC(c1ccccc1)c1ccccc1)c1ccccc1 (stereo not drawn) [Compound 42]	1.15 µM	1.57 µM	–
O=C(CSC1=NCCN1)NC(c1ccccc1)c1ccccc1 [Compound 37]	1.17 µM	3.05 µM	–
Cc1ccccc1NC(=O)CSC1=NCCN1 [Compound 3]	–	–	IC50 (Human Jurkat cells; [5]): 32.1 µM
C/N=C(\NC)NCC(=O)N1CCCC1 [Compound 38]	–	–	autophagy (LC3II levels) in H4 cells (H4 cells): induce autophagy; autophagy (LC3II levels) in MEF cells (MEF cells): induce autophagy; cleaved caspase 3 in Jurkat cells [1]: block cleaved caspase 3; cleaved caspase 3 in MEF cells [2]: block cleaved caspase 3

Further lines, with some results ahead:

IC50 (Human Jurkat cells; [3])	IC50 (Murine RGC5(661W) cells; [4])	Structure (SMILES)	other results
3.87 µM	1.83 µM	CC(C)C(SC1=NCCN1C)C(=O)NC1CCCCCC1 (stereo not drawn) [Compound 29]	–
1.8 µM	3.33 µM	CN1CCN=C1SCC(=O)NC1CCCCCC1 [Compound 19]	–
0.882 µM	2.21 µM	CN1CCN=C1SC(C(=O)NC1CCCCCC1)c1ccccc1Cl (stereo not drawn) [Compound 34]	–
3.06 µM	2.81 µM	CC(SC1=NCCN1C)C(=O)NC1CCCCCC1 (stereo not drawn) [Compound 27]	–
1.07 µM	1.79 µM	CCN1CCN=C1SC(C(=O)NC1CCCCCC1)c1ccccc1 (stereo not drawn) [Compound 36]	–
1.99 µM	3.08 µM	CN1CCN=C1SCC(=O)N(C)C1CCCCCC1 [Compound 26]	–
3.66 µM	4.02 µM	CC(SC1=NCCN1)C(=O)NC1CCCCCC1 (stereo not drawn) [Compound 18]	–
0.953 µM	2.93 µM	CC(SC1=NCCN1C)C(=O)N(C)C1CCCCCC1 (stereo not drawn) [Compound 28]	–
1.04 µM	1.67 µM	CN1CCN=C1SC(C)(C)C(=O)NC1CCCCCC1 [Compound 33]	–
2.14 µM	1.6 µM	CN1CCN=C1SC(C(=O)NC1CCCCCC1)c1ccc(Cl)cc1 (stereo not drawn) [Compound 35]	–
